ChEMBL document CHEMBL1201862, “PubChem BioAssay data set” (2004)
Blank lines part the entries; values can stand above or below the molecule they belong to. Active and inactive are the calls of the source.

What was measured:
HEK293 [1] = assay: cells; assay type: functional, cell-based; details: Homo sapiens
[2] = biological target: Photoreceptor-specific nuclear receptor (Homo sapiens, UniProt Q9Y5X4); assay type: functional, cell-based;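 note: CHO-S cells with Gal4-NCOR and VP16-NR2E3 two-hybrid luciferase reporter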
Chain of Photoreceptor-specific nuclear receptor (Q9Y5X4 whole entry, the tested form may be a part): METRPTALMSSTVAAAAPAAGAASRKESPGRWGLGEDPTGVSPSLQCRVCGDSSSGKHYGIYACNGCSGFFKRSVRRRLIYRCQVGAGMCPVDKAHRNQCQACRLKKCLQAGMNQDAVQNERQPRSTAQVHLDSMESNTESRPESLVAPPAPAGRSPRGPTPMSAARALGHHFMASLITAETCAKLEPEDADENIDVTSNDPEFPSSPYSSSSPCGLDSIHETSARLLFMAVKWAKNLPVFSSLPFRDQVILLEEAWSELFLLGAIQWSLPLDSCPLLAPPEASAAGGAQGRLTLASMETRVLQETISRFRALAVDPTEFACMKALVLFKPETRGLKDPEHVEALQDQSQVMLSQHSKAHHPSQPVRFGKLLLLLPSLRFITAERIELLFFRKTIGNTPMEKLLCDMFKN

HEK293 [3] = assay: cells; assay type: functional, cell-based; details: Homo sapiens; remark: listed apart in the source
HEK293 [4] = assay: NOD2 signaling inhibitors in MDP-stimulated cells, cell-based, uHTS, luminescence (AID 2001); assay type: functional; details: Homo sapiens
HEK293 [5] = assay: cells; assay type: functional, cell-based; details: Homo sapiens; remark: listed apart in the source
[6] = biological target: Nucleotide-binding oligomerization domain-containing protein 2 (Homo sapiens, UniProt Q9HC29); assay: NOD2 signaling inhibitors, cell-based, luminescence, uHTS, HEK293 (AID 1566); assay type: functional
Chain of Nucleotide-binding oligomerization domain-containing protein 2 (Q9HC29 whole entry, the tested form may be a part): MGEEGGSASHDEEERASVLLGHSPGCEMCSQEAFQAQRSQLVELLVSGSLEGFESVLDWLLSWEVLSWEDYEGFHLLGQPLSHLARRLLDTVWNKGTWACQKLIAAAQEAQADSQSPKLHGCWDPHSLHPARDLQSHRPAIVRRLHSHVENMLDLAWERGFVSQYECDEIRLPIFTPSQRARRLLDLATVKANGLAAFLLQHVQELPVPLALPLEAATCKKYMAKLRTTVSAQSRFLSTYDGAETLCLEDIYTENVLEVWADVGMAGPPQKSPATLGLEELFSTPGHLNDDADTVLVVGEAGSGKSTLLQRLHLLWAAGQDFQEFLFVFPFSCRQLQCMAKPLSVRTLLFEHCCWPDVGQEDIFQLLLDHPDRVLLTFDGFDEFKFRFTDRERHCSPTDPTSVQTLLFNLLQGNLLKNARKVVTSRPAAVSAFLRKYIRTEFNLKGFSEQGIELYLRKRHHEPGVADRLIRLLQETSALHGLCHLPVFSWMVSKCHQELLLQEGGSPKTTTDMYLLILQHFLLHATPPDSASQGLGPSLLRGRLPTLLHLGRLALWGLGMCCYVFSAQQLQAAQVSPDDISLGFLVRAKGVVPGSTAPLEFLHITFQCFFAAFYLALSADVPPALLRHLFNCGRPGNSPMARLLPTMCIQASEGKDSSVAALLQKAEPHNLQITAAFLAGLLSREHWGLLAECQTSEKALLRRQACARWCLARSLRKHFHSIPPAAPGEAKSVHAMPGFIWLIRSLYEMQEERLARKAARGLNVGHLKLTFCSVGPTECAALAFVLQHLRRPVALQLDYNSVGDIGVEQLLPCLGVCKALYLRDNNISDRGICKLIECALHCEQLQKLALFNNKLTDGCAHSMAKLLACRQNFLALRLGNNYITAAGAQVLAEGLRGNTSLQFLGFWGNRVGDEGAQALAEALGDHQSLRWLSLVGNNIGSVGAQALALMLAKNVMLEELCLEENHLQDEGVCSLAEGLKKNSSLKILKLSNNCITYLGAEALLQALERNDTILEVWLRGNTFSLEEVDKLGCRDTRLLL

HEK293 [7] = assay: NOD1 signaling inhibitors, primary screen, cell-based, luminescence, uHTS (AID 1578); assay type: functional; details: Homo sapiens
[8] = biological target: T1, Sentrin-specific protease 1 (Homo sapiens, UniProt Q9P0U3); assay: Dose response confirmation of small molecule inhibitors of the catalytic domain of the SUMO protease, SENP1 in a FRET assay.; assay type: functional; details: read-out: IC50_Mean
T1 sequence (Q9P0U3 whole entry): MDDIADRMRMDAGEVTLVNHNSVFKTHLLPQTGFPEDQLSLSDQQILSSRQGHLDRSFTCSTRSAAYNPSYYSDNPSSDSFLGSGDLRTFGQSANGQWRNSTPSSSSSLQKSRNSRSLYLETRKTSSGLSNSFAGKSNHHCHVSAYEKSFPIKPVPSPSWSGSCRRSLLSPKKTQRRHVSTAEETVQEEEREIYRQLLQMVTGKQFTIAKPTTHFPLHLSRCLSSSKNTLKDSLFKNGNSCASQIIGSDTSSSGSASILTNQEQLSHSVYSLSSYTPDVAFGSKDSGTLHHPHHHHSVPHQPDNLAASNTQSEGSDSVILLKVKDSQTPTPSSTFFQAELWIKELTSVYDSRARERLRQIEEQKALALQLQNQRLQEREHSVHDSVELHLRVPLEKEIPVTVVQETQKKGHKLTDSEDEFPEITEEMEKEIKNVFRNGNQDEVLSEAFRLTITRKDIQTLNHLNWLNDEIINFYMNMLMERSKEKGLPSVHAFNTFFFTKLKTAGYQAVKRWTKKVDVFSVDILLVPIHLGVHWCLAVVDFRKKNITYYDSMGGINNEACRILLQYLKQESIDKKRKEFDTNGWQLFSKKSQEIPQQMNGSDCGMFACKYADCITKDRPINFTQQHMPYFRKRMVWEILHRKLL

[9] = biological target: T1, Sentrin-specific protease 1; assay: potency of human SENP1 inhibitors, dose response, biochemical, kinetic FRET (AID 651697); assay type: functional; details: read-out: IC50_Mean
[10] = inhibitors of intracellular T. cruzi replication, confirmation, NIH3T3 host cells, beta-gal luminescence (AID 2044); assay type: functional, cell-based;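 note: intracellular parasites grown in NIH/3T3 mouse fibroblasts as host cells; luminescent beta-galactosidase reporter signal from transgenic T. cruzi replicating inside host cells; inhibitors lower the luminescence signal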
[11] = cytotoxicity toward NIH3T3 fibroblasts, dose response, counter-screen, cell-based, ATP luminescence, mouse fibroblasts (AID 2010); assay type: functional;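 note: cells exposed to compound for about 90 hours before reading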
[12] = C. albicans growth with fluconazole, confirmation, fluorescence, retest (AID 2467); assay type: functional, cell-based
Estrogen receptor = biological target: T2, Estrogen receptor (Homo sapiens, UniProt P03372);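 note: potency for inhibiting coactivator peptide recruitment to the receptor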
T2 sequence (P03372 whole entry): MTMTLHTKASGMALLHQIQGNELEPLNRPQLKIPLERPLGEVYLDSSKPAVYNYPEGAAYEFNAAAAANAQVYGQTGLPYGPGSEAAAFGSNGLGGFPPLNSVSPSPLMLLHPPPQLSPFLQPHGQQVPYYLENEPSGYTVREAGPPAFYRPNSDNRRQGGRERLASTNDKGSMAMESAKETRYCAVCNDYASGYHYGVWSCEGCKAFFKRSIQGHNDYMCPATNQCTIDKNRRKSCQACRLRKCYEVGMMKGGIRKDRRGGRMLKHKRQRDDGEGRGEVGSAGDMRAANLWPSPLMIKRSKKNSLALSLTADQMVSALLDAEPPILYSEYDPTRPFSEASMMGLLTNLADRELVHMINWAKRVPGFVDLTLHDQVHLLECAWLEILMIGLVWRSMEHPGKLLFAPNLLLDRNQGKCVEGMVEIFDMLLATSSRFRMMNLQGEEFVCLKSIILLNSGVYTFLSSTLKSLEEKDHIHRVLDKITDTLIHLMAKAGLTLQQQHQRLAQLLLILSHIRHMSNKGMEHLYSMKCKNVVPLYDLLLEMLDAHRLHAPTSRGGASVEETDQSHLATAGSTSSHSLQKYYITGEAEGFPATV

[13] = NIH-3T3 fibroblast cytotoxicity, dose response, cytotoxicity control, cell-based, fluorescence, Alamar Blue, secondary assay (AID 2327); assay type: functional;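 note: NIH-3T3 mouse fibroblasts cultured with fluconazole at 8 µg/mL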
[14] = biological target: T3, Heat shock factor protein 1 (Mus musculus, UniProt P38532); assay: HSF1 potentiators in luciferase reporter cells, confirmation, cell-based, NIH3T3, luminescence, dose retest (AID 435004); assay type: functional;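 note: stress induced by proteasome inhibitor MG132 added 30 min after compound; luciferase reporter driven by HSF1 response element in NIH3T3 cells; actives raise luminescence as potentiators of the MG132 stress response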
T3 sequence (P38532 whole entry): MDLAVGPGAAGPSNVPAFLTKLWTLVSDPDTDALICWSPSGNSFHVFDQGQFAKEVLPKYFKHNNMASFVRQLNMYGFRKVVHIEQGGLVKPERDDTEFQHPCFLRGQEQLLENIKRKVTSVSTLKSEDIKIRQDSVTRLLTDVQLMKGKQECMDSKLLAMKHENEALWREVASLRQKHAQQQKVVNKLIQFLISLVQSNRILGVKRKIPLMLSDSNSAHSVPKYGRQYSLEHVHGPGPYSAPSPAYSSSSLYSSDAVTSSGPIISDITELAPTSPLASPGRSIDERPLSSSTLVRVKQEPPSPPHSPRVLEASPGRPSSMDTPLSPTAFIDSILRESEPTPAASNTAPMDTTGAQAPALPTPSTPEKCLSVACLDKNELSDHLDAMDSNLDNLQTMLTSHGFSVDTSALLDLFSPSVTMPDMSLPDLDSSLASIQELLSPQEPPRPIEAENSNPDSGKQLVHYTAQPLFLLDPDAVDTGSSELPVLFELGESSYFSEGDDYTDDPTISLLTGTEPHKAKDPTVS

Protein Wnt-3a = Protein Wnt-3a (Mus musculus, UniProt P27467); assay: Wnt3a-driven reporter signaling inhibition, dose response, selectivity assay for Gli-SUFU antagonist project, Wnt-LIGHT cells, luminescence (AID 651570); assay type: functional; details: read-out: IC50_Mean;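 note: Wnt-LIGHT reporter cells stimulated with conditioned medium from Wnt3a-producing cells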
Chain of Protein Wnt-3a (P27467 whole entry): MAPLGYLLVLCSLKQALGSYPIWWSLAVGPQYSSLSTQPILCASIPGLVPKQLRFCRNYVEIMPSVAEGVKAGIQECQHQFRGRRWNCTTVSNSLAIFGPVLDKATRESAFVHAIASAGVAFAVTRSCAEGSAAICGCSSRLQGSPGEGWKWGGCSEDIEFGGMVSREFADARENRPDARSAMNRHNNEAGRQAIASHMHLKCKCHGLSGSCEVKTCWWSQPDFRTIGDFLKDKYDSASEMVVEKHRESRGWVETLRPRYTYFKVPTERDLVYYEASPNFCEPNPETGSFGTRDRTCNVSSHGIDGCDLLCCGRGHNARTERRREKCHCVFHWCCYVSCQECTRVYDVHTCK

[15] = biological target: T4, Rac GTPase-activating protein 1 (Homo sapiens, UniProt Q9H0H5); assay: MgcRacGAP GTPase-activating activity inhibitors, confirmation, biochemical, ADP Hunter fluorescence, primary and confirmatory (AID 624330); assay type: functional
T4 sequence (Q9H0H5 whole entry): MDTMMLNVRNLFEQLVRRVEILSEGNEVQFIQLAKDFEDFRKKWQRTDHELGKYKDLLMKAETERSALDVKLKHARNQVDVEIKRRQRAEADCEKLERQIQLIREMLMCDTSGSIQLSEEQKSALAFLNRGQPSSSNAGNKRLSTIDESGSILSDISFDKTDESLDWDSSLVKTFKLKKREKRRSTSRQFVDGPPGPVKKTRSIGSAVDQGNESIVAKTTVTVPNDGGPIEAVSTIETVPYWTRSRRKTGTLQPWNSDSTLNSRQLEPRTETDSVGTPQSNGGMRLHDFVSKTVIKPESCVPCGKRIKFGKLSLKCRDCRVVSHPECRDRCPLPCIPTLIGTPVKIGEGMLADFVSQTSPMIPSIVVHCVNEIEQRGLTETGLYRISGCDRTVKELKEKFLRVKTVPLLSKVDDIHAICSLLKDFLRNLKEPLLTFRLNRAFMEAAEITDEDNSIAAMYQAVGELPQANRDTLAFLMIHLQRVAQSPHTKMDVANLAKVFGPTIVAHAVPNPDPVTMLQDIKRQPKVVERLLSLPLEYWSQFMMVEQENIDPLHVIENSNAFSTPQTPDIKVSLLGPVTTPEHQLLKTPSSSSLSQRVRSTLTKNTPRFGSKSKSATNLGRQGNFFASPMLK

Large T antigen = Large T antigen (Simian virus 40, UniProt P03070); assay type: functional, Betapolyomavirus macacae;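 note: Confirmatory-stage PubChem screen for compounds that inhibit SV40 T antigen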
Chain of Large T antigen (P03070 whole entry): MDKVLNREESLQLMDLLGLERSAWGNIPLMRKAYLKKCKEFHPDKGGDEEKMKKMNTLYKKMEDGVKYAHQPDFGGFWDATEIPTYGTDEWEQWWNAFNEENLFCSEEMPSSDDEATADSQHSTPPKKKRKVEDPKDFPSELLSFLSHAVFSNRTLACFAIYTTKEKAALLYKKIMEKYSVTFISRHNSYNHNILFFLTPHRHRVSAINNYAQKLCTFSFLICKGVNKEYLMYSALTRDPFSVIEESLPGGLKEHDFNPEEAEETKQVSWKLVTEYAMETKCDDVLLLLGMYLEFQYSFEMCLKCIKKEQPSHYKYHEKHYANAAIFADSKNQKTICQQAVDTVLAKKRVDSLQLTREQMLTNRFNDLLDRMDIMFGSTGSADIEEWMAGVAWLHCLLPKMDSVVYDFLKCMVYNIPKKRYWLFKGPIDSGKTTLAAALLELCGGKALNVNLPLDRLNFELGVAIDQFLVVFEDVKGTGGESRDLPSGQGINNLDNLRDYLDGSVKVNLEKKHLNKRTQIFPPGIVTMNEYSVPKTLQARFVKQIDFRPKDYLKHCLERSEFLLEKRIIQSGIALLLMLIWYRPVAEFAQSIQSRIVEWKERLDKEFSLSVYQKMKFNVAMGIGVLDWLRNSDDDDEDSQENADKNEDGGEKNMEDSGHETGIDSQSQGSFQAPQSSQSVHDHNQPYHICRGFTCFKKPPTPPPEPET

[16] = miR-122 activators in hepatoma reporter cells, dose response, cell-based, Huh7 psiCHECK-miR122, Renilla luciferase, cherry-picked (AID 651956); assay type: functional;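 note: huh7 hepatoma cells stably carrying a psiCHECK-2 miR-122 sensor plasmid; renilla luciferase signal reporting endogenous miR-122 activity after 48 h compound exposure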

SMILES: C=CCn1c(C)cc(C(=O)COc2ccc(C)nc2[N+](=O)[O-])c1C
IC50 (HEK293 [1]): 5.78 µM (active)
IC50 [2]: 4.69 µM (active)
IC50 (HEK293 [3]): > 20 µM (inactive)
IC50 (HEK293 [4]): > 20 µM (inactive)
IC50 (HEK293 [5]): > 20 µM (inactive)
EC50 [6]: 6.96 µM (active)
EC50 (HEK293 [7]): > 20 µM (inactive)

SMILES: Cc1cccc(-n2c(SCc3cc(=O)n4ccsc4n3)nc3ccccc32)c1
EC50 [10]: < 0.1 µM (active)
EC50 [11]: > 60 µM (not active)
IC50 [8]: 9.71 µM (active)
EC50 [12]: 2.05 µM (active)
EC50 (cells): 0.209 µM (active)
IC50 [9]: 22.3 µM (inactive)
IC50 (Estrogen receptor): > 50 µM (not active)
EC50 [13]: 19.9 µM (active)

SMILES: CCCC#Cc1ccc2c(c1)O[C@H](CN(C)C(=O)c1ccncc1)[C@H](C)CN([C@@H](C)CO)S2(=O)=O
AC50 [16]: 1.06 µM (active)

SMILES: CCC(=O)N1C[C@H]2[C@@H](c3ccccc31)[C@H](CO)N2C(=O)Nc1ccccc1F
AC50 [16]: 4.38 µM (active)

SMILES: Cc1ccccc1-c1ccc2c(c1)O[C@@H](CN(C)C(=O)Nc1ccc(F)cc1)[C@@H](C)CN([C@@H](C)CO)S2(=O)=O
AC50 [16]: 18.5 µM (active)

Continued, values first:

IC50 [8]: 17.2 µM (active)
IC50 [9]: 53.8 µM (inactive)
SMILES: c1ccc(NC2=Nc3cccc4cccc2c34)cc1

IC50 [8]: 7.24 µM (active)
IC50 [9]: 7.01 µM (active)
SMILES: c1ccc(CN2CCN(C3=Nc4cccc5cccc3c45)CC2)cc1

IC50 [8]: 10 µM (active)
IC50 [9]: 45.8 µM (inactive)
SMILES: COc1ccc(NC2=Nc3cccc4cccc2c34)cc1

IC50 [8]: 9.39 µM (active)
IC50 [9]: 9.06 µM (active)
SMILES: COc1cc(S(=O)(=O)Nc2ccc3c(c2)C(=O)N(C)C3=O)ccc1NC(C)=O

IC50 [2]: 3.35 µM (active)
EC50 [14]: 5.35 µM (active)
IC50 (Protein Wnt-3a): 7.28 µM (active)
IC50 [15]: 13 µM (active)
IC50 (Large T antigen): 12.1 µM (active)
SMILES: O=C1N/C(=C\c2ccc(O)cc2)C(O)=C1/C=N/Cc1ccccc1
